Source: ChEMBL document CHEMBL1136455, “The synthesis and antibacterial activity of 1,3,4-thiadiazole phenyl oxazolidinone analogues” (Bioorg Med Chem Lett, 2003)
Converted amounts (≈) assume the structure as drawn.

How the values were obtained:
Format in all cases: functional
Staphylococcus aureus [1] = assay: In vitro antibacterial activity against methicillin resistant Staphylococcus aureus UC 12673 (MRSA)
Mus musculus [2] = assay: In vivo efficacy to protect the Staphylococcus aureus infected mouse and the activity was reported using Linezolid as a control with ED50 = 5.6
Streptococcus pneumoniae = assay: In vitro antibacterial activity against penicillin sensitive Streptococcus pneumoniae UC 9912
Moraxella catarrhalis = assay: In vitro antibacterial activity against Moraxella catarrhalis 30607
Enterococcus faecalis = assay: In vitro antibacterial activity against vancomycin resistant Enterococcus faecalis UC 9217 (VREA)
Haemophilus influenzae = assay: In vitro antibacterial activity against ampicillin resistant Haemophilus influenzae 30063 (B-lactamase +)
Staphylococcus aureus [3] = assay: In vitro antibacterial activity against methicillin susceptible Staphylococcus aureus UC 9213 (MSSA)
[4] = system: Staphylococcus epidermidis; assay: In vitro antibacterial activity against methicillin resistant Staphylococcus epidermidis UC 12084
Mus musculus [5] = assay: In vivo efficacy to protect the Staphylococcus aureus infected mouse and the activity was reported using Linezolid as a control with ED50 =11.5
Mus musculus [6] = assay: In vivo efficacy to protect the Staphylococcus aureus infected mouse and the activity was reported using Linezolid as a control with ED50 = 5
Mus musculus [7] = assay: In vivo efficacy to protect the Staphylococcus aureus infected mouse and the activity was reported using Linezolid as a control with ED50 = 3.7
Mus musculus [8] = assay: In vivo efficacy to protect the Staphylococcus aureus infected mouse and the activity was reported using Linezolid as a control with ED50 =4
Mus musculus [9] = assay: In vivo efficacy to protect the Staphylococcus aureus infected mouse and the activity was reported using Linezolid as a control with ED50 = 2.2
Mus musculus [10] = assay: In vivo efficacy to protect the Staphylococcus aureus infected mouse and the activity was reported using Linezolid as a control with ED50 = 3.5
Mus musculus [11] = assay: In vivo efficacy to protect the Staphylococcus aureus infected mouse and the activity was reported using Linezolid as a control with ED50 = 4.3

Compound | MIC (Staphylococcus aureus [1]) | ED50 (Mus musculus [2]) | MIC (Streptococcus pneumoniae) | MIC (Moraxella catarrhalis) | MIC (Enterococcus faecalis) | MIC (Haemophilus influenzae) | MIC (Staphylococcus aureus [3]) | MIC [4] | ED50 (Mus musculus [5]) | ED50 (Mus musculus [6]) | ED50 (Mus musculus [7]) | ED50 (Mus musculus [8]) | ED50 (Mus musculus [9]) | ED50 (Mus musculus [10]) | ED50 (Mus musculus [11])
C/C(S)=N/C[C@H]1CN(c2ccc(-c3nncs3)c(F)c2)C(=O)O1 | < 0.125 µg/mL | > 20 mg/kg | < 0.125 µg/mL | 0.25 µg/mL (≈ 0.709 µM) | 0.125 µg/mL (≈ 0.355 µM) | 1 µg/mL (≈ 2.84 µM) | 0.25 µg/mL (≈ 0.709 µM) | < 0.125 µg/mL | – | – | – | – | – | – | –
CCOC(=O)c1nnc(-c2ccc(N3C[C@H](CNC(C)=O)OC3=O)cc2F)s1 | 8 µg/mL (≈ 19.6 µM) | – | < 0.125 µg/mL | 16 µg/mL (≈ 39.2 µM) | 8 µg/mL (≈ 19.6 µM) | > 16 µg/mL | 8 µg/mL (≈ 19.6 µM) | 2 µg/mL (≈ 4.9 µM) | – | – | – | – | – | – | –
CSCc1nnc(-c2ccc(N3C[C@H](CNC(C)=O)OC3=O)cc2F)s1 | 1 µg/mL (≈ 2.52 µM) | – | 0.25 µg/mL (≈ 0.631 µM) | 4 µg/mL (≈ 10.1 µM) | 1 µg/mL (≈ 2.52 µM) | > 16 µg/mL | 1 µg/mL (≈ 2.52 µM) | 0.25 µg/mL (≈ 0.631 µM) | – | – | – | – | – | – | –
CC(=O)NC[C@H]1CN(c2ccc(-c3nnc(CN)s3)c(F)c2)C(=O)O1 | 4 µg/mL (≈ 10.9 µM) | – | < 0.125 µg/mL | 2 µg/mL (≈ 5.47 µM) | 1 µg/mL (≈ 2.74 µM) | 2 µg/mL (≈ 5.47 µM) | 8 µg/mL (≈ 21.9 µM) | 1 µg/mL (≈ 2.74 µM) | 21.3 mg/kg | – | – | – | – | – | –
C/C(S)=N/C[C@H]1CN(c2ccc(-c3nnc(CS(C)(=O)=O)s3)c(F)c2)C(=O)O1 | 0.5 µg/mL (≈ 1.12 µM) | – | 0.06 µg/mL (≈ 0.135 µM) | 0.5 µg/mL (≈ 1.12 µM) | 0.25 µg/mL (≈ 0.562 µM) | 2 µg/mL (≈ 4.5 µM) | 0.25 µg/mL (≈ 0.562 µM) | 0.25 µg/mL (≈ 0.562 µM) | – | > 20 mg/kg | – | – | – | – | –
CC(=O)NC[C@H]1CN(c2ccc(-c3nnc(COC(C)=O)s3)c(F)c2)C(=O)O1 | 1 µg/mL (≈ 2.45 µM) | – | < 0.125 µg/mL | 2 µg/mL (≈ 4.9 µM) | 1 µg/mL (≈ 2.45 µM) | 4 µg/mL (≈ 9.79 µM) | 1 µg/mL (≈ 2.45 µM) | 0.25 µg/mL (≈ 0.612 µM) | – | – | 18.5 mg/kg | – | – | – | –
CC(=O)NC[C@H]1CN(c2ccc(-c3nnc(CF)s3)c(F)c2)C(=O)O1 | 1 µg/mL (≈ 2.71 µM) | – | 0.25 µg/mL (≈ 0.679 µM) | 2 µg/mL (≈ 5.43 µM) | 1 µg/mL (≈ 2.71 µM) | 4 µg/mL (≈ 10.9 µM) | 1 µg/mL (≈ 2.71 µM) | 0.25 µg/mL (≈ 0.679 µM) | – | – | – | 8.6 mg/kg | – | – | –
COCc1nnc(-c2ccc(N3C[C@H](CNC(C)=O)OC3=O)cc2F)s1 | 1 µg/mL (≈ 2.63 µM) | – | 0.25 µg/mL (≈ 0.657 µM) | 4 µg/mL (≈ 10.5 µM) | 1 µg/mL (≈ 2.63 µM) | 8 µg/mL (≈ 21 µM) | 2 µg/mL (≈ 5.26 µM) | 4 µg/mL (≈ 10.5 µM) | – | – | – | – | 5.8 mg/kg | – | –
CC(=O)NC[C@H]1CN(c2ccc(-c3nnc(CC(N)=O)s3)c(F)c2)C(=O)O1 | 4 µg/mL (≈ 10.2 µM) | – | < 0.125 µg/mL | 8 µg/mL (≈ 20.3 µM) | 2 µg/mL (≈ 5.08 µM) | 4 µg/mL (≈ 10.2 µM) | 4 µg/mL (≈ 10.2 µM) | 0.5 µg/mL (≈ 1.27 µM) | – | – | – | – | – | > 20 mg/kg | –
CNCc1nnc(-c2ccc(N3C[C@H](C/N=C(/C)S)OC3=O)cc2F)s1 | – | – | < 0.5 µg/mL | < 0.5 µg/mL | < 0.5 µg/mL | < 0.5 µg/mL | < 0.5 µg/mL | < 0.5 µg/mL | – | – | – | – | – | – | > 20 mg/kg
CNCc1nnc(-c2ccc(N3C[C@H](CNC(C)=O)OC3=O)cc2F)s1 | 4 µg/mL (≈ 10.5 µM) | – | < 0.5 µg/mL | 4 µg/mL (≈ 10.5 µM) | 2 µg/mL (≈ 5.27 µM) | 4 µg/mL (≈ 10.5 µM) | 4 µg/mL (≈ 10.5 µM) | 1 µg/mL (≈ 2.64 µM) | – | – | – | – | – | – | –
CC(=O)NC[C@H]1CN(c2ccc(-c3nnc(CS(C)(=O)=O)s3)c(F)c2)C(=O)O1 | 4 µg/mL (≈ 9.34 µM) | – | < 0.5 µg/mL | 4 µg/mL (≈ 9.34 µM) | 2 µg/mL (≈ 4.67 µM) | 4 µg/mL (≈ 9.34 µM) | 4 µg/mL (≈ 9.34 µM) | 1 µg/mL (≈ 2.33 µM) | – | – | – | – | – | – | –
